Experimental findings from US12377176B2, “Cancer diagnostic imaging agents” (Technische Universität München, priority 2019, dated 2025) are described below.

Several values for one entry are separate records, joined by “and”; a condition that tells them apart may be missing. Identical values can stand only once. Like-named read-outs stand apart in the source and are kept apart here. Marks after values point to notes of the source that are not given here.

A word on the IC50: it is the point on the concentration scale where inhibition reaches its midpoint.

The nature of series [1]: In vivo distribution of rhPSMA-7 isomers after rhPSMA7-rac: radio-HPLC and radio-TLC of blood, organ and urine samples. Set-up: species or system mice. How it is done: In order to quantify the relative uptake of each isomer (rhPSMA-7.1-7.4), a tumor-bearing male CB-17-SCID mouse was injected with the racemic mixture of rhPSMA-7 (180-280 MBq, SA=247-349 GBq/μmol, produced at the Klinikum rechts der Isar in a fully automated procedure). The animal was left under anesthesia for 30 min and sacrificed. Urine, blood, liver, kidneys and tumor were collected and processed to the hereafter described procedures. The urine sample was centrifuged for 5 min at 9000 rpm to yield a clear solution and directly subjected to radio-HPLC analysis. Blood was diluted to 1 mL with H2O and centrifuged twice at 13000 g for 5 min. The supernatant was collected and loaded on a Strata X cartridge (33 μm Polymeric Reversed Phase 500 mg, pre-conditioned with 5 mL MeOH, followed by 5 mL H2O). After washing with 5 mL H2O, the cartridge was eluted with a 6:4 mixture (v/v) of MeCN in H2O, supplemented with 1% TFA. The eluate was diluted with water and analysed by radio-HPLC. Tumour, kidneys and liver were homogenised using either a Potter-Elvehjem tissue grinder (Kontes Glass Co, Vineland, USA) or a MM-400 ball mill (Retsch GmbH, Haan, Germany).
Tumour and kidneys were separately homogenised in the tissue homogeniser with 1 mL of extraction buffer (850 μL 1 M HEPES pH7.4, 100 μL20 mM PMPA and 100 μL 1M NaCl) for 30 min. The resulting homogenate was collected and centrifuged at 13000 g for 5 min. Subsequently the supernatant was collected, centrifuged again (13000 g, 5 min) and loaded on a Strata X cartridge (33 μm Polymeric Reversed Phase 500 mg, pre-conditioned with 5 mL MeOH, followed by 5 mL H2O). After washing with 5 mL H2O, the cartridge was eluted with a 6:4 mixture (v/v) of MeCN in H2O, supplemented with 1% TFA. The eluate of each organ was diluted with water and analysed by radio-HPLC.
The organs (tumour, kidney, liver) were separately homogenised in a 2 mL tube together with 3 grinding balls (3 mm diameter) and 1 mL of extraction buffer (850 μL 1 M HEPES pH7.4, 100 μL 20 mM PMPA and 100 μL 1M NaCl) for 10 min at 30 Hz. The homogenate was centrifuged at 13000 g for 5 min and the supernatant was collected. Subsequently, the pellet was suspended in 1 mL of extraction buffer and homogenized again with the ball mill for 10 min at 30 Hz. After centrifugation (13000 g, 5 min), both supernatants were combined and loaded on a Strata X cartridge (33 μm Polymeric Reversed Phase 500 mg, pre-conditioned with 5 mL MeOH, followed by 5 mL H2O). After washing with 5 mL H2O, the cartridge was eluted with a 6:4 mixture (v/v) of MeCN in H2O, supplemented with 1% TFA. The eluate of each organ was diluted with water and analysed by radio-HPLC. […] Finally the ratios of the individual isomers were determined from the HPLC profiles of the extracted samples and compared to the ratios of the isomers from the quality control of the racemic mixture of rhPSMA-7. The decay corrected extraction- and cartridge loading-efficiency, as well as the overall extracted activity of the examined samples are given in table 2. The cartridge elution-efficiency was >99% for all experiments.
Radio-TLC Analysis was carried out a) on urine samples by directly subjecting a small volume onto a TLC strip, b) by analysis of a small volume of the non-immobilized activity during the SPE process (the ‘breakthrough fraction’), and c) by analysis of a small volume of the cartridge eluates.

The target in another series is T1, PSMA (Homo sapiens, UniProt Q04609).
T1 construct: endogenous in cells; host or cells: LNCaP cells
T1 sequence (Q04609 whole entry): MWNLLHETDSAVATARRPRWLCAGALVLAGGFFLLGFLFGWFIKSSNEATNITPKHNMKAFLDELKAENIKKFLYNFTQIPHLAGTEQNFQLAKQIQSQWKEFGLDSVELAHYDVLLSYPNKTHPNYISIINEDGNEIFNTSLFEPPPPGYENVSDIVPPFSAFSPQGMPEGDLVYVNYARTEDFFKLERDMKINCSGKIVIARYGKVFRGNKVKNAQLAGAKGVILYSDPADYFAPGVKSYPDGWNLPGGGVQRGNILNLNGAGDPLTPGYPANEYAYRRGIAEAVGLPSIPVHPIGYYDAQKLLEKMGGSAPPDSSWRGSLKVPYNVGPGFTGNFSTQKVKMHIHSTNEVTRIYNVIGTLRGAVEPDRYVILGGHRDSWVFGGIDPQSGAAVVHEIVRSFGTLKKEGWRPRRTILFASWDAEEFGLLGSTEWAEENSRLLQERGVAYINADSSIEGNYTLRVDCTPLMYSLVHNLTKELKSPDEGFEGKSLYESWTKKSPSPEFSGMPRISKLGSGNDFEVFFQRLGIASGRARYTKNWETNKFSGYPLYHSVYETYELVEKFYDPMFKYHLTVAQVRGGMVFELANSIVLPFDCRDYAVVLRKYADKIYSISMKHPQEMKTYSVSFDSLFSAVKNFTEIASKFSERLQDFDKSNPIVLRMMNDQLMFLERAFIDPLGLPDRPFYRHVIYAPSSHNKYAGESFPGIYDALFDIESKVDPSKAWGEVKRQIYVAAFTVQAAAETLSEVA
Description: Determination of IC50: PSMA affinity, competition with ([125I]I-BA)KuE on LNCaP cells. The format is binding. Particulars: LNCaP cells, [125I]IB-KuE 0.2 nM, 1 h, 4 °C. How it is done: After removal of the culture medium, the cells were treated once with 500 μL of HBSS (Hank's balanced salt solution, Biochrom, Berlin, Germany, with addition of 1% bovine serum albumin (BSA)) and left 15 min on ice for equilibration in 200 μL HBSS (1% BSA). […] Quantification of bound and free radioligand was accomplished in a γ-counter.

Series [2] concerns LNCaP tumor-bearing CB-17 SCID mice. Particulars: male, mouse, in vivo, 1 h.
Description: To establish tumor xenografts, LNCaP cells (10^7 cells/200 μL) were suspended in a 1:1 mixture (v/v) of Dulbecco modified Eagle medium/Nutrition Mixture F-12 with Glutamax-I (1:1) and Matrigel (BD Biosciences, Germany), and inoculated subcutaneously onto the right shoulder of 6-8 weeks old CB17-SCID mice (Charles River, Sulzfeld, Germany). Mice were used for when tumors had grown to a diameter of 5-8 mm (3-4 weeks after inoculation).
Approximately 1-2 MBq (<0.2 nmol) of the ^18F-labeled PSMA inhibitor was injected into the tail vein of LNCaP tumor-bearing male CB-17 SCID mice and sacrificed after 1 h post injection (n=4-5). Selected organs were removed, weighted and measured in a γ-counter
For another series, the system named is LNCaP cells. Description: Internalization into LNCaP cells, relative to ([125I]I-BA)KuE. Type of series: cell-based. Here is the method: Data is corrected for non-specific binding ([…]) and expressed as mean±SD (n=3).
Subsequent to the removal of the culture medium, the cells were washed once with 500 μL DMEM-F12 (5% BSA) and left to equilibrate for at least 15 min at 37° C. in 200 μL DMEM-F12 (5% BSA). Each well was treated with either 25 μL of either DMEM-F12 (5% BSA) or a 100 μM PMPA solution for blockade. Next, 25 μL of the ^68Ga/^18F-labeled PSMA inhibitor (5.0 nM) was added and the cells incubated at 37° C. for 60 min. The experiment was terminated by placing the 24-well plate on ice for 3 min and consecutive removal of the medium. Each well was rinsed with 250 μL HBSS and the fractions from these first two steps combined, representing the amount of free radioligand. Removal of surface bound activity was accomplished by incubation of the cells with 250 μL of ice-cold PMPA (10 μM in PBS) solution for 5 min and rinsed again with another 250 μL of ice-cold PBS. The internalized activity was determined by incubation of the cells in 250 μL 1 M NaOH and the combination with the fraction of a subsequent wash step with 250 μL 1.0 M NaOH. Each experiment (control and bloackde) was performed in triplicate. Free, surface bound and internalized activity was quantified in a γ-counter. […] Data were corrected for non-specific internalization and normalized to the specific-internalization observed for the radioiodinated reference compound.

[3] abbreviates: Phosphoimager, Blood, 30 min p.i.
Where [4] appears, read: Phosphoimager, Kidney, 30 min p.i.
Where [5] appears, read: Phosphoimager, Tumor, 30 min p.i.
[6] abbreviates: Phosphoimager, Urine, 30 min p.i., listed as [^18F]rhPSMA7-rac.
Setting [7] is: TLC Scanner, Kidney, tumor bearing mice 30 min p.i., listed as [^18F]rhPSMA7-rac.

Regarding “[^19F][^natGa]D/L-Dap-R/S-DOTAGA-rhPSMA7 [rhPSMA7-rac]”, the Intact tracer in series [1] (setting [3]) is 96.80^ %; in series [1] (setting [4]), 96.48^ %; in series [1] (Phosphoimager, Liver, 30 min p.i., listed as [^18F]rhPSMA7-rac), 93.92^# % and 74.15^# %; in series [1] (setting [5]) it was 96.47^ %; in series [1] (setting [6]) it was 98.55^ % and 95.85^ %; in series [1] (setting [7]), 94.04% and 94.58%. In addition, the Intact tracer in series [1] (TLC Scanner, Urine, tumor bearing mice 30 min p.i., listed as [^18F]rhPSMA7-rac) is 82.51% and 96.2%. The “^18F-Fluoride” value in series [1] (setting [3]) is 3.20^ %; in series [1] (setting [4]) it was 3.52^ %; in series [1] (setting [5]), 4.15^ %; in series [1] (setting [6]), 1.55^ % and 4.15^ %; in series [1] (setting [7]), 5.96% and 5.42%.

On to `CC(C)(C)[Si](F)(c1ccc(C(=O)NC[C@@H](NC(=O)CC[C@@H](C(=O)O)N2CCN(CC(=O)O)CCN(CC(=O)O)CCN(CC(=O)O)CC2)C(=O)N[C@H](CCCCNC(=O)CCC(=O)NCCC[C@@H](NC(=O)CC[C@H](NC(=O)N[C@@H](CCC(=O)O)C(=O)O)C(=O)O)C(=O)O)C(=O)O)cc1)C(C)(C)C` [rhPSMA7.3, [^19F][^natGa]D-Dap-S-DOTAGA-rhPSMA7, metal not drawn], for which the 50% inhibitory concentration (IC50) on PSMA (HBSS+1% BSA, single measurements, read-out: individual IC50 measurements) was 3.17 nM and 2.91 nM and 5.35 nM and 5.74 nM and 4.59 nM and 4.45 nM. For the same compound, at PSMA (mean of the individual measurements, read-out: IC50 Mean), the IC50 stood at 4.37 nM. In series [2], this compound yielded a Biodistribution adrenals of 2.2 ± 0.83 % ID/g, a Biodistribution blood of 0.96 ± 0.24 % ID/g, a Biodistribution bone of 0.38 ± 0.32 % ID/g and a Biodistribution heart of 0.87 ± 0.17 % ID/g. In series [2], this compound registered a Biodistribution intestine of 0.35 ± 0.07 % ID/g, a Biodistribution kidneys of 292 ± 45.1 % ID/g, a Biodistribution liver of 0.69 ± 0.13 % ID/g and a Biodistribution lung of 2.2 ± 0.35 % ID/g. Besides, in series [2], the Biodistribution muscle came out at 0.33 ± 0.15 % ID/g, the Biodistribution pancreas is listed as 0.63 ± 0.44 % ID/g, the Biodistribution spleen amounted to 16.6 ± 2.6 % ID/g and the Biodistribution stomach was determined as 0.44 ± 0.23 % ID/g. The same compound came in with a Biodistribution tumor in series [2] of 18.3 ± 7.2 % ID/g. Also, the “internalization rate Mean” value in the series with LNCaP cells (LNCaP cells, 1 h, 37 °C, c=0.5 nM, mean) was 161.41 % of [^125I]IB-KuE. In the series with LNCaP cells (LNCaP cells, 1 h, 37 °C, c=0.5 nM, single measurements), the individual internalization rates is 156.6 % of [^125I]IB-KuE and 156.0 % of [^125I]IB-KuE and 171.7 % of [^125I]IB-KuE. Besides, the internalization with LNCaP cells (mean ± SD as quoted in the discussion) is listed as 161.41%±8.88.
